According to patent US5200409A, “Composition and use of substituted 1,3-dithiolo-and 1,4-dithiinoquinoxalines as an antimicrobial” (The Dow Chemical Company, priority 1992, dated 1993):
Converted amounts (≈) assume the structure as drawn. Like-named read-outs stand apart in the source and are kept apart here.

Legend:
[1] = test system: Aspergillus niger (An); assay: Minimum inhibitory concentration (MIC) in malt yeast agar; assay type: cell-based, Aspergillus niger ATCC 16404; details: malt yeast agar; 30° C.; 72 hours for fungi; read-out: Minimum Inhibitory Concentration, An
Protocol: (§1) The minimum inhibitory concentration (MIC) for the compounds listed in Table I is determined for 9 bacteria, using nutrient agar: and 7 yeast and fungi, using malt yeast agar. A one percent solution of the test compound is prepared in a mixture of acetone and water. Nutrient agar is prepared at pH 6.8, representing a neutral medium, and at pH 8.2, representing an alkaline medium. The nutrient agars are prepared by adding 23 g of nutrient agar to one-liter of deionized water. In addition, the alkaline medium is prepared by adjusting a 0.04M solution of N-[tris-(hydroxymethyl)methyl]-glycine buffered deionized water with concentrated sodium hydroxide to a pH of […]. Malt yeast agar is prepared by adding 3 g yeast extract and 45 g malt agar per liter of deionized water. The specific agar is dispensed in 30 ml aliquots into 25×200 mm test tubes, capped and autoclaved for 15 minutes at 115° C. The test tubes containing the agar are cooled in a water bath until the temperature of the agar is 48° C. Then, an appropriate amount of the one percent solution of the test compound is added (except in the controls where no compound is added) to the respective test tubes so that the final concentrations are 500, 250, 100, 50, 25, 10, 5, 2.5, 1.0 and zero parts per million of the test compound in the agar, thus having a known concentration of test compound dispersed therein. The contents of the test tubes are then transferred to respective petri plates. After drying for 24 hours, the petri plates containing nutrient agar are inoculated with bacteria and those containing malt yeast agar are inoculated with yeast and fungi.
(§2) The inoculation with the yeast and fungi is accomplished as follows. Cultures of yeast and fungi are incubated for seven days on malt yeast agar at 30° C. These cultures are used to prepare suspensions by the following procedure. A suspension of each organism is prepared by adding 10 ml of sterile saline and 10 microliters of octylphenoxy polyethoxy ethanol to the agar slant of yeast or fungi. The sterile saline/octylphenoxy polyethoxy ethanol solution is then agitated with a sterile swab to suspend the microorganism grown on the slant. Each resulting suspension is diluted into sterile saline (1 part suspension: 9 parts sterile saline). Aliquots of these dilutions are placed in individual wells of Steer's Replicator and petri plates inoculated as previously described. The petri plates are incubated at 30° C. and read after 48 hours for yeast and 72 hours for fungi.
(§3) Table II lists the bacteria, yeast and fungi used in the MIC test described above along with their respective American Type Culture Collection (ATCC) identification numbers.

[2] = test system: Candida albicans (Ca); assay: as above; assay type: cell-based, Candida albicans ATCC 10231; details: malt yeast agar; 30° C.; 48 hours for yeast; read-out: Minimum Inhibitory Concentration, Ca
Protocol: as §1, §2, §3

[3] = test system: Aureobasidium pullulan (Ap); assay: as above; assay type: cell-based, Aureobasidium pullulan ATCC 16622; details: malt yeast agar; 30° C.; 48 hours for yeast and 72 hours for fungi; read-out: Minimum Inhibitory Concentration, Ap
Protocol: as §1, §2, §3

[4] = test system: Escherichia coli (Ec); assay: Minimum inhibitory concentration (MIC) in nutrient agar; assay type: cell-based, Escherichia coli ATCC 11229
Protocol: as §1
(§4) The inoculation with bacteria is accomplished by using the following procedure. Twenty-four hour-cultures of each of the bacteria are prepared by incubating the respective bacteria in tubes containing nutrient broth for 24 hours at 30° C. in a shaker. Dilutions of each of the 24 hour-cultures are made so that nine separate suspensions (one for each of the nine test bacteria) are made, each containing 10^8 colony forming units (CFU) per ml of suspension of a particular bacteria. Aliquots of 0.3 ml of each of the bacterial suspensions are used to fill the individual wells of Steer's Replicator. For each microbial suspension, 0.3 ml was used to fill three wells (i.e., three wells of 0.3 ml each) so that for the nine different bacteria, 27 wells are filled. The Steer's Replicator is then used to inoculate both the neutral and alkaline pH nutrient agar petri plates.
(§5) The inoculated petri plates are incubated at 30° C. for 48 hours and then read to determine if the test compound which is incorporated into the agar prevented growth of the respective bacteria.
as §3

[5] = test system: Staphylococcus aureus (Sa); assay: as above; assay type: cell-based, Staphylococcus aureus ATCC 6538
Protocol: as §1, §4, §5, §3

[6] = test system: Bacillus subtilis (Bs); assay: as above; assay type: cell-based, Bacillus subtilis ATCC 8473
Protocol: as §1, §4, §5, §3

[7] = test system: Saccharomyces cerevisiae (Sc); assay: Minimum inhibitory concentration (MIC) in malt yeast agar; assay type: cell-based, Saccharomyces cerevisiae ATCC 4105; details: read-out: Minimum Inhibitory Concentration, Sc
Protocol: as §1, §2, §3

[8] = test system: Penicillium chrysogenum (Pc); assay: as above; assay type: cell-based, Penicillium chrysogenum ATCC 9480; details: read-out: Minimum Inhibitory Concentration, Pc
Protocol: as §1, §2, §3

[9] = test system: Pseudomonas aeruginosa (PRD-10); assay: Minimum inhibitory concentration (MIC) in nutrient agar; assay type: cell-based, Pseudomonas aeruginosa ATCC 15442
Protocol: as §1, §4, §5, §3

[10] = test system: Proteus vulgaris (Pv); assay: as above; assay type: cell-based, Proteus vulgaris ATCC 881
Protocol: as §1, §4, §5, §3

[11] = test system: Enterobacter aerogenes (Ea); assay: as above; assay type: cell-based, Enterobacter aerogenes ATCC 13048; details: Klebsiella aerogenes
Protocol: as §1, §4, §5, §3

[12] = test system: Pseudomonas aeruginosa (Pa); assay: as above; assay type: cell-based, Pseudomonas aeruginosa ATCC 10145; details: 48 hours
Protocol: as §1, §4, §5, §3

[13] = test system: Klebsiella pneumoniae (Kp); assay: as above; assay type: cell-based, Klebsiella pneumoniae ATCC 8308
Protocol: as §1, §4, §5, §3

[14] = test system: Trichoderma viride (Tv); assay: Minimum inhibitory concentration (MIC) in malt yeast agar; assay type: cell-based, Trichoderma viride ATCC 8678; details: read-out: Minimum Inhibitory Concentration, Tv
Protocol: as §1, §2, §3

[15] = test system: Fusarium oxysporum (Fo); assay: as above; assay type: cell-based, Fusarium oxysporum ATCC 48112; details: read-out: Minimum Inhibitory Concentration, Fo
Protocol: as §1, §2, §3

[16] = test system: Salmonella choleraesuis (Sc); assay: Minimum inhibitory concentration (MIC) in nutrient agar; assay type: cell-based, Salmonella choleraesuis ATCC 10708; details: Salmonella enterica
Protocol: as §1, §4, §5, §3

[17] = 48 h, pH 8.2, read-out: Minimum Inhibitory Concentration, Ec
[18] = pH 8.2, nutrient agar, 30° C., 48 hours, read-out: Minimum Inhibitory Concentration, Sa
[19] = pH 6.8, nutrient agar, 30° C., 48 hours, read-out: Minimum Inhibitory Concentration, Bs
[20] = pH 8.2, nutrient agar, 30° C., 48 hours, read-out: Minimum Inhibitory Concentration, Bs
[21] = malt yeast agar, 30° C., 48 hours for yeast
[22] = malt yeast agar, 30° C., 72 hours for fungi
[23] = pH 6.8, nutrient agar, 30° C., 48 hours, read-out: Minimum Inhibitory Concentration, Kp
[24] = 48 h, pH 6.8, read-out: Minimum Inhibitory Concentration, Ec
[25] = 48 h, pH 8.2, read-out: Minimum Inhibitory Concentration, Sa
[26] = pH 6.8, nutrient agar, 30° C., 48 hours, read-out: Minimum Inhibitory Concentration, Sa
[27] = 48 h, pH 6.8, read-out: Minimum Inhibitory Concentration, Bs
[28] = 48 h, pH 8.2, read-out: Minimum Inhibitory Concentration, Bs
[29] = 48 h, pH 6.8, read-out: Minimum Inhibitory Concentration, PRD
[30] = 48 h, pH 8.2, read-out: Minimum Inhibitory Concentration, PRD
[31] = 48 h, pH 6.8, read-out: Minimum Inhibitory Concentration, Pv
[32] = 48 h, pH 8.2, read-out: Minimum Inhibitory Concentration, Pv
[33] = 48 h, pH 6.8, read-out: Minimum Inhibitory Concentration, Ea
[34] = 48 h, pH 8.2, read-out: Minimum Inhibitory Concentration, Ea
[35] = 48 h, pH 8.2, read-out: Minimum Inhibitory Concentration, Kp
[36] = 48 h, pH 6.8, read-out: Minimum Inhibitory Concentration, Sc
[37] = 48 h, pH 8.2, read-out: Minimum Inhibitory Concentration, Sc

Row | Compound | MIC [1] [µg/mL] | MIC [2] [µg/mL] | MIC [3] [µg/mL] | MIC [4, 17] [µg/mL] | MIC [7, 21] [µg/mL] | MIC ([12]; pH 6.8, 30° C.) [µg/mL] | MIC ([12]; pH 8.2, 30° C.) [µg/mL] | MIC [13, 23] [µg/mL] | MIC [14, 22] [µg/mL] | MIC [15, 22] [µg/mL] | MIC [4, 24] [µg/mL] | MIC [5, 26] [µg/mL] | MIC [9, 29] [µg/mL] | MIC [9, 30] [µg/mL] | MIC [10, 31] [µg/mL] | MIC [10, 32] [µg/mL] | MIC [11, 33] [µg/mL] | MIC [11, 34] [µg/mL] | MIC [13, 35] [µg/mL] | MIC [16, 36] [µg/mL] | also measured
1 | Cc1cc2nc3c(nc2cc1[N+](=O)[O-])SC(C#N)=C(C#N)S3 [F, 7-nitro-8-methyl-1,4-dithiino-(2,3-b)-quinoxaline-2,3-dicarbonitrile] | < 10 | < 10 | < 10 | > 500 | < 10 | 500 (≈ 1530 µM) | > 500 | 100 (≈ 305 µM) | 25 (≈ 76.4 µM) | < 10 | – | – | – | – | – | – | – | – | – | – | MIC ([4]; pH 6.8, nutrient agar, 30° C., 48 hours, read-out: Minimum Inhibitory Concentration, Ec): 250 µg/mL (≈ 764 µM); MIC ([5]; 48 h, pH 6.8, read-out: Minimum Inhibitory Concentration, Sa): < 10 µg/mL; MIC [5, 18]: 50 µg/mL (≈ 153 µM); MIC [6, 19]: < 10 µg/mL; MIC [6, 20]: 50 µg/mL (≈ 153 µM); MIC [8, 22]: < 10 µg/mL; MIC ([9]; pH 6.8, nutrient agar, 30° C., 48 hours, read-out: Minimum Inhibitory Concentration, PRD): > 500 µg/mL; MIC ([9]; pH 8.2, nutrient agar, 30° C., 48 hours, read-out: Minimum Inhibitory Concentration, PRD): > 500 µg/mL; MIC ([10]; pH 6.8, nutrient agar, 30° C., 48 hours, read-out: Minimum Inhibitory Concentration, Pv): 50 µg/mL (≈ 153 µM); MIC ([10]; pH 8.2, nutrient agar, 30° C., 48 hours, read-out: Minimum Inhibitory Concentration, Pv): > 500 µg/mL; MIC ([11]; pH 6.8, nutrient agar, 30° C., 48 hours, read-out: Minimum Inhibitory Concentration, Ea): 500 µg/mL (≈ 1530 µM); MIC ([11]; pH 8.2, nutrient agar, 30° C., 48 hours, read-out: Minimum Inhibitory Concentration, Ea): > 500 µg/mL; MIC ([13]; pH 8.2, nutrient agar, 30° C., 48 hours, read-out: Minimum Inhibitory Concentration, Kp): > 500 µg/mL; MIC ([16]; pH 6.8, nutrient agar, 30° C., 48 hours, read-out: Minimum Inhibitory Concentration, Sc): 250 µg/mL (≈ 764 µM); MIC ([16]; pH 8.2, nutrient agar, 30° C., 48 hours, read-out: Minimum Inhibitory Concentration, Sc): > 500 µg/mL
2 | Cc1ccc2nc3c(nc2c1)SC(=C(C#N)C#N)S3 [N, 6-methyl-1,3-dithiolo-(4,5-b)-quinoxaline-2-ylidene-propanedinitrile] | 500 (≈ 1770 µM) | > 500 | 500 (≈ 1770 µM) | > 500 | > 500 | > 500 | > 500 | > 500 | > 500 | > 500 | > 500 | > 500 | > 500 | > 500 | > 500 | > 500 | > 500 | > 500 | > 500 | 500 (≈ 1770 µM) | MIC [5, 25]: > 500 µg/mL; MIC [6, 27]: > 500 µg/mL; MIC [6, 28]: > 500 µg/mL; MIC [8, 22]: 500 µg/mL (≈ 1770 µM); MIC [16, 37]: > 500 µg/mL
3 | N#CC1=C(C#N)Sc2nc3cc([N+](=O)[O-])c(Cl)cc3nc2S1 [G, 7-chloro-8-nitro-1,4-dithiino-(2,3-b)-quinoxaline-2,3-dicarbonitrile] | 25 (≈ 71.9 µM) | 25 (≈ 71.9 µM) | 25 (≈ 71.9 µM) | > 500 | – | > 500 | > 500 | 500 (≈ 1440 µM) | – | – | > 500 | 25 (≈ 71.9 µM) | > 500 | > 500 | > 500 | > 500 | > 500 | > 500 | > 500 | > 500 | MIC [5, 18]: 50 µg/mL (≈ 144 µM); MIC [6, 19]: 250 µg/mL (≈ 719 µM); MIC [6, 20]: 100 µg/mL (≈ 288 µM); MIC ([7]; 48 h): 25 µg/mL (≈ 71.9 µM); MIC ([8]; 72 h): 100 µg/mL (≈ 288 µM); MIC ([14]; 72 h): 100 µg/mL (≈ 288 µM); MIC ([15]; 72 h): 100 µg/mL (≈ 288 µM); MIC [16, 37]: > 500 µg/mL
4 | Cc1cc2nc3c(nc2cc1[N+](=O)[O-])SC(=C(C#N)C#N)S3 [R, 6-nitro-7-methyl-1,3-dithiolo-(4,5-b)-quinoxaline-2-ylidene-propanedinitrile] | 100 (≈ 305 µM) | > 500 | 500 (≈ 1530 µM) | > 500 | 500 (≈ 1530 µM) | > 500 | > 500 | > 500 | > 500 | > 500 | > 500 | > 500 | > 500 | > 500 | > 500 | > 500 | > 500 | > 500 | > 500 | > 500 | MIC [5, 25]: > 500 µg/mL; MIC [6, 27]: > 500 µg/mL; MIC [6, 28]: > 500 µg/mL; MIC ([8]; 72 h): 50 µg/mL (≈ 153 µM); MIC [16, 37]: > 500 µg/mL
